Results taken from patent US20060094676A1, “Compositions and methods for treating cancer using compositions comprising an inhibitor of endothelin receptor activity” (priority 2004, published 2006).

Experiments:
Type in all cases: cell-based, human
BCL-2A1 = test: Real-time RT-PCR of BCL-2A1 transcripts; details: BQ788 3 days
Method: Equal amounts of RNA from cells that were treated with BQ788 for 3 days were subjected to real-time RT-PCR analysis for the detection of BCL-2A1 (A) and ADP ribosyltransferase 3 (B) transcripts. Total amounts are represented in A while relative (to control) values are shown in B. Differences in expression levels are shown as x fold decrease and are statistically significant (p<0.05) unless a column in marked as non significant (N.S.). Lysates of BQ788 treated cells and controls were subjected to an apoptosis ELISA detection test (C). SK-MEL-28 cells were cultured with pan caspase inhibitor (D) or with caspase 6 inhibitor (E) with or without BQ788 for 2.5 days. […] SK-MEL-28 cells were cultured for 3 days in the presence of BQ788 and assayed for caspase 6 activity (F). The difference between the columns is statistically significant (p<0.05).
RNA was prepared from the different cell lines in different culture conditions using SV total RNA isolation kit (Promega) according to the manufacturer's protocol. For each sample RNA concentration was determined using the total RNA nano procedure of an Agilent bioanalyzer. A stock of SK-MEL-28 RNA aliquots was prepared containing 10, 20, 50, 100, 200, 500 and 1000 ng/12 μl for use as a standard curve and kept in −80° C. For the experimental unknown samples, a stock of 100 ng/12 μl RNA aliquots from each cell line and condition was prepared and stored at −80° C. For each real-time experiment one series of standard curve and unknown experimental series of aliquots was put on ice for use. Complementary DNA was prepared by adding to each tube 0.5 μl of random hexamers (Promega) and 1 μl of 10 mM dNTP mix (Promega) and incubating at 65° C. for 5 min. 4 μl of 5× M-MLV buffer (Promega), 1 μl of the RNase inhibitor RNasin (Promega) and 1 μl of M-MLV RT RNase H (Promega) were then added and the solution was incubated at 42° C. for 50 min followed by 15 min at 70° C. For real time reactions 15 μl of each cDNA sample were transferred to 3 wells in a 386 well plate. To each well we added 10 μl of TaqMan universal PCR master mix (Applied Biosystems), 1 μl of primers+probe mix (Assays-on-Demand from Applied Biosystems: EDNRB Hs00240747, BCL-2A1 Hs00187845, PARP-3 Hs00154151, VEGF Hs00173626, HIF-1α Hs00153153 and Gravin Hs00374507) and 4 μl of nuclease free water (Promega). […] A standard curve of Ct versus RNA quantity was established and accordingly the Ct in the unknown samples was correlated to quantity of transcript.
If the observed reduction in BCL-2A1 and PARP-3 expression is implicated in ETRB blockade-dependent cell death, one would expect the more resistant cell lines to display less reduction in BCL-2A1 and PARP-3 levels. To test this possibility and to validate our microarray results, we used quantitative real-time PCR.

ETRB [1] = test: Western blot of ETRB protein after BQ788; details: SK-MEL-28 cells; 3, 5 and 7 days with BQ788
Source text: (§1) Real-time RT-PCR detection of ETRB transcripts (see legends FIG. 2) (A). ETRB protein expression compared to tubulin in SK-MEL-28 cells after 3, 5 and 7 days with (+) or without (−) BQ788 (B).
Samples were subjected to SDS-PAGE according to the method as described (Laemmli, Cleavage of structural proteins during the assembly of the head of bacteriophage T4, Nature, 227:680-685 (1970)). Proteins were blotted onto PVDF (Millipore) membranes and the filters were blocked with 5% non-fat dry milk. Immunostaining was preformed with anti-human endothelin receptor B antibody (Assay Designs, Inc.) (4 μg/ml) or anti-human Tubulin (Oncogene Research Products) (1 μg/ml) followed by incubation with a peroxidase conjugated goat anti rabbit secondary antibody (Sigma) (1:5000). Bands of 51 kd and 60 kd for ETRB (Hiraki, et al, Regular immunohistochemical localization of endothelin-1 and endothelin receptor B in normal, hyperplastic and neoplastic human adrenocortical cells, Pathol. Int., 47:117-125 (1997)) and tubulin respectively were detected using a chemiluminescent substrate kit (Interchim) according to the manufacturer's recommendations.

ETRB [2] = test: Real-time RT-PCR of ETRB transcripts; details: BQ788 treatment
Method: as §1
RNA was prepared from the different cell lines in different culture conditions using SV total RNA isolation kit (Promega) according to the manufacturer's protocol. For each sample RNA concentration was determined using the total RNA nano procedure of an Agilent bioanalyzer. A stock of SK-MEL-28 RNA aliquots was prepared containing 10, 20, 50, 100, 200, 500 and 1000 ng/12 μl for use as a standard curve and kept in −80° C. For the experimental unknown samples, a stock of 100 ng/12 μl RNA aliquots from each cell line and condition was prepared and stored at −80° C. For each real-time experiment one series of standard curve and unknown experimental series of aliquots was put on ice for use. Complementary DNA was prepared by adding to each tube 0.5 μl of random hexamers (Promega) and 1 μl of 10 mM dNTP mix (Promega) and incubating at 65° C. for 5 min. 4 μl of 5× M-MLV buffer (Promega), 1 μl of the RNase inhibitor RNasin (Promega) and 1 μl of M-MLV RT RNase H (Promega) were then added and the solution was incubated at 42° C. for 50 min followed by 15 min at 70° C. For real time reactions 15 μl of each cDNA sample were transferred to 3 wells in a 386 well plate. To each well we added 10 μl of TaqMan universal PCR master mix (Applied Biosystems), 1 μl of primers+probe mix (Assays-on-Demand from Applied Biosystems: EDNRB Hs00240747, BCL-2A1 Hs00187845, PARP-3 Hs00154151, VEGF Hs00173626, HIF-1α Hs00153153 and Gravin Hs00374507) and 4 μl of nuclease free water (Promega). Wells containing water instead of cDNA served as negative controls. The samples were subjected to 40 cycles of 15 sec at 95° C. and 1 min at 60° C. A standard curve of Ct versus RNA quantity was established and accordingly the Ct in the unknown samples was correlated to quantity of transcript.

SMILES: CCCC[C@@H](NC(=O)[C@@H](Cc1cn(C(=O)OC)c2ccccc12)NC(=O)[C@H](CC(C)(C)C)NC(=O)N1[C@H](C)CCC[C@@H]1C)C(=O)O [BQ788, N-cis-2,6-dimethylpiperidinocarbonyl-L-γ-methylleucyl-D-1-methoxycarbonyltrptophanyl-D-norleucine]
- decrease in BCL-2A1 levels (BCL-2A1; Cut-met line): 1.8 fold
- decrease in BCL-2A1 levels (BCL-2A1; LN-met): 2.9 fold
- decrease in BCL-2A1 levels (BCL-2A1; SK-MEL-28): 5.7 fold
- BCL-2A1 expression change (BCL-2A1; primary melanoma cells): did not change
- ETRB protein levels (ETRB [1]): reduced
- reduction in ETRB mRNA expression (ETRB [2]; Cut-met line): 1.49 fold
- reduction in ETRB mRNA expression (ETRB [2]; LN-met line): 1.85 fold
- reduction in ETRB mRNA expression (ETRB [2]; SK-MEL-28 cells): 11 fold
- ETRB expression level change (ETRB [2]; primary melanoma cells): did not show any change
